According to patent US20220363662A1, “COMPOUNDS AS LXR AGONISTS” (Integral Biosciences Privated Limited, priority 2021, published 2022):
pEC50: −log10 of the molar value.

Molecular target: T1, LXR beta (Homo sapiens, UniProt P55055)
T1 construct: 5 μL of 4×LXR beta-LBD was added to each well (final concentration 5 nM); purchased Thermofisher PV4658
T1 sequence (P55055 222-460 limits assumed): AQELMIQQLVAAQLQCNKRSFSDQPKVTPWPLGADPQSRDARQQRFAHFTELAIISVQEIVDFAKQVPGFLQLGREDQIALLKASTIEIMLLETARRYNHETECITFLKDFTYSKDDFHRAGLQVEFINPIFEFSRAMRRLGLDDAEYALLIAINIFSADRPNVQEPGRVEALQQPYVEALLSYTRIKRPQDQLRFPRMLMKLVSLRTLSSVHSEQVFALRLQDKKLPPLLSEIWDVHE
Test: LXR beta agonist assay (Lanthascreen TR-FRET)
Assay type: biochemical
Settings: LXR beta-LBD 5 nM, read-out: LXR-β EC50
Description: EC50 values of compounds against LXR beta were determined at Integral BioSciences (India) using Lanthascreen TR-FRET (Thermofisher, Cat #PV4658). Assay was performed in a 20 μL final volume in a Black 384-well plate (Corning, Cat #4511). Dose response curve for the compounds were prepared in duplicates with starting concentration at 30 μM and a three-fold titration was performed. The reaction buffer consisted of TR-FRET Coregulator Buffer G. To the compound dilution, 5 μL of 4×LXR beta-LBD was added to each well (final concentration 5 nM). An equal volume (5 μL) containing 4×Fl-D22/Tb-anti GST antibody (final concentration 100 nM/10 nM) was added to initiate the enzyme reaction and the reaction was incubated for 60 min at 22° C. after which the plates were read using BioTek Plate reader for TR-FRET every hour up to 4 hours.
Analysis was done using the standard curve by non-linear regression, variable slope inhibitor curve fits (Graph-Pad Prism) and EC50's of compounds were determined wherever possible.

Row | Compound | pEC50
1 | CN(C)C(=O)c1ccc(NC2CN(C3CCN(C(=O)[C@](O)(c4ccccc4)C(F)(F)F)CC3)C2)cc1Cl (single isomer, unassigned) [Compound 1.9] | < 4.52
2 | CN(C)C(=O)c1ccc(NC2CN(C3CCN(C(=O)[C@](O)(c4ccccc4)C(F)(F)F)CC3)C2)cc1F (single isomer, unassigned) [Compound 1.86] | < 4.52
3 | CN(C)C(=O)c1ccc(NC2CN(C3CCN(C(=O)[C@](O)(c4ccccc4)C(F)(F)F)CC3)C2)cc1F (single isomer, unassigned) [Compound 1.87] | < 4.52
4 | CCN(CC)C(=O)c1ccc(NC2CN(C3CCN(C(=O)[C@@](O)(c4ccccc4)C(F)(F)F)CC3)C2)cc1Cl (single isomer, unassigned) [Compound 1.96] | 5.34
5 | CCN(CC)C(=O)c1ccc(NC2CN(C3CCN(C(=O)[C@](O)(c4ccccc4)C(F)(F)F)CC3)C2)cc1Cl (single isomer, unassigned) [Compound 1.97] | 5.93
6 | O=C(c1ccc(NC2CN(C3CCN(C(=O)[C@@](O)(c4ccccc4)C(F)(F)F)CC3)C2)cc1Cl)N1CCCC1 (single isomer, unassigned) [Compound 1.99] | 5.74
7 | CC(=O)N1CCN(C(=O)c2ccc(NC3CN(C4CCN(C(=O)[C@@](O)(c5ccccc5)C(F)(F)F)CC4)C3)cc2Cl)CC1 (single isomer, unassigned) [Compound 1.105] | 5.65
8 | O=C(NCC(F)F)c1ccc(NC2CN(C3CCN(C(=O)[C@](O)(c4ccccc4)C(F)(F)F)CC3)C2)cc1Cl (single isomer, unassigned) [Compound 1.106] | 5.57
9 | O=C(NCC(F)F)c1ccc(NC2CN(C3CCN(C(=O)[C@@](O)(c4ccccc4)C(F)(F)F)CC3)C2)cc1Cl (single isomer, unassigned) [Compound 1.107] | 5.89
10 | O=C(c1ccc(NC2CN(C3CCN(C(=O)[C@](O)(c4ccccc4)C(F)(F)F)CC3)C2)cc1Cl)N1CCCCC1 (single isomer, unassigned) [Compound 1.108] | 5.80
11 | O=C(c1ccc(NC2CN(C3CCN(C(=O)[C@](O)(c4ccccc4)C(F)(F)F)CC3)C2)cc1Cl)N1CCCCC1 (single isomer, unassigned) [Compound 1.109] | 5.52
12 | CN(C)C(=O)c1ccc(NC2CN(C3CCN(C(=O)[C@@](O)(c4ccc(F)cc4)C(F)(F)F)CC3)C2)cc1Cl (single isomer, unassigned) [Compound 1.116] | 5.01
13 | CN(C)C(=O)c1ccc(NC2CN(C3CCN(C(=O)[C@@](O)(c4cccc(Cl)c4)C(F)(F)F)CC3)C2)cc1Cl (single isomer, unassigned) [Compound 1.118] | 6.62
14 | Cc1cccc([C@](O)(C(=O)N2CCC(N3CC(Nc4ccc(C(=O)N(C)C)c(Cl)c4)C3)CC2)C(F)(F)F)c1 (single isomer, unassigned) [Compound 1.121] | 5.55
15 | CN(C)C(=O)c1ccc(NC2CN(C3CCN(S(=O)(=O)c4ccccc4Cl)CC3)C2)cc1Cl [Compound 1.2, 2-chloro-4-(1-(1-(2-chlorophenylsulfonyl)piperidin-4-yl)azetidin-3-ylamino)-N,N-dimethylbenzamide] | 5.48
16 | CN(C)C(=O)c1ccc(-c2nnc(C3CCN(S(=O)(=O)c4ccccc4Cl)CC3)s2)cc1Cl [Compound 1.11, 2-chloro-4-(5-(1-(2-chlorophenylsulfonyl)piperidin-4-yl)-1,3,4-thiadiazol-2-yl)-N,N-dimethylbenzamide] | 5.51
17 | CN(C)C(=O)c1ccc(NC2CN(C3CCN(S(=O)(=O)c4ccccc4C#N)CC3)C2)cc1Cl [Compound 1.13, 2-chloro-4-(1-(1-(2-cyanophenylsulfonyl)piperidin-4-yl)azetidin-3-ylamino)-N,N-dimethylbenzamide] | 5.35

Row | Compound | pEC50
18 | N#Cc1ccccc1S(=O)(=O)N1CCC(C2CCN(c3cc(Cl)c4c(=O)[nH]ccc4c3)CC2)CC1 [Compound 1.15, 2-(1′-(8-chloro-1-oxo-1,2-dihydroisoquinolin-6-yl)-4,4′-bipiperidin-1-ylsulfonyl)benzonitrile] | 5.56
19 | O=C(N1CCC(C2CCN(c3cc(Cl)c4c(=O)[nH]ccc4c3)CC2)CC1)C1(c2ccccc2)CCC1 [Compound 1.22, 8-chloro-6-(1′-(1-phenylcyclobutanecarbonyl)-[4,4′-bipiperidin]-1-yl)isoquinolin-1(2H)-one] | 5.62
20 | CC(C)(C(=O)N1CCC(C2CCN(c3cc(Cl)c4c(=O)[nH]ccc4c3)CC2)CC1)c1ccccc1 [Compound 1.24, 8-chloro-6-(1′-(2-methyl-2-phenylpropanoyl)-4,4′-bipiperidin-1-yl)isoquinolin-1(2H)-one] | 5.61
21 | CN(C)C(=O)c1ccc(-c2ccn(C3CCN(C(=O)C(O)(c4ccccc4)C(F)(F)F)CC3)c(=O)c2)cc1Cl (stereo not drawn) [Compound 1.27, 2-chloro-N,N-dimethyl-4-(2-oxo-1-(1-(3,3,3-trifluoro-2-hydroxy-2-phenylpropanoyl)piperidin-4-yl)-1,2-dihydropyridin-4-yl)benzamide] | < 4.52
22 | CN(C)C(=O)c1ccc(N(C)C2CN(C3CCN(C(=O)C4(c5ccccc5)CCC4)CC3)C2)cc1Cl [Compound 1.31, 2-chloro-N,N-dimethyl-4-(methyl(1-(1-(1-phenylcyclobutanecarbonyl)piperidin-4-yl)azetidin-3-yl)amino)benzamide] | 5.49
23 | CN(C)C(=O)c1ccc(N(C)C2CN(C3CCN(C(=O)[C@](O)(c4ccccc4)C(F)(F)F)CC3)C2)cc1Cl [Compound 1.32, (R)-2-chloro-N,N-dimethyl-4-(methyl(1-(1-(3,3,3-trifluoro-2-hydroxy-2-phenylpropanoyl)piperidin-4-yl)azetidin-3-yl)amino)benzamide] | 5.14
24 | CN(C)C(=O)c1ccc(NC2CN(C3CCN(C(=O)C4(c5ccc(Cl)cc5)CCC4)CC3)C2)cc1Cl [Compound 1.33, 2-chloro-4-(1-(1-(1-(4-chlorophenyl)cyclobutanecarbonyl)piperidin-4-yl)azetidin-3-ylamino)-N,N-dimethylbenzamide] | 5.37
25 | CN(C)C(=O)c1ccc(NC2CN(C3CCN(C(=O)C4(c5ccc(F)cc5)CCCC4)CC3)C2)cc1Cl [Compound 1.34, 2-chloro-4-(1-(1-(1-(4-fluorophenyl)cyclopentanecarbonyl)piperidin-4-yl)azetidin-3-ylamino)-N,N-dimethylbenzamide] | 5.47
26 | CN(C)C(=O)c1ccc(-c2nnc(C3=CCN(C(=O)C(C)(C)C)CC3)s2)cc1Cl [Compound 1.59, 2-chloro-N,N-dimethyl-4-(5-(1-pivaloyl-1,2,3,6-tetrahydropyridin-4-yl)-1,3,4-thiadiazol-2-yl)benzamide] | 5.26
27 | CN(C)C(=O)c1ccc(-c2nnc(C3=CCN(C(=O)C4CCC(F)(F)CC4)CC3)s2)cc1Cl [Compound 1.60, 2-chloro-4-(5-(1-(4,4-difluorocyclohexanecarbonyl)-1,2,3,6-tetrahydropyridin-4-yl)-1,3,4-thiadiazol-2-yl)-N,N-dimethylbenzamide] | 5.82
28 | CN(C)C(=O)c1ccc(-c2nnc(C3=CCN(S(=O)(=O)c4cc(Cl)ccc4Cl)CC3)s2)cc1Cl [Compound 1.61, 2-chloro-4-(5-(1-(2,5-dichlorophenylsulfonyl)-1,2,3,6-tetrahydropyridin-4-yl)-1,3,4-thiadiazol-2-yl)-N,N-dimethylbenzamide] | < 5.00
29 | COc1ncc(Cl)cc1S(=O)(=O)N1CC=C(c2nnc(-c3ccc(C(=O)N(C)C)c(Cl)c3)s2)CC1 [Compound 1.62, 2-chloro-4-(5-(1-(5-chloro-2-methoxypyridin-3-ylsulfonyl)-1,2,3,6-tetrahydropyridin-4-yl)-1,3,4-thiadiazol-2-yl)-N,N-dimethylbenzamide] | < 5.00
30 | CN(C)C(=O)c1ccc(NC2CN(C3CCN(C(=O)C4CCC(F)(F)CC4)CC3)C2)cc1Cl [Compound 1.63, 2-chloro-4-(1-(1-(4,4-dfluorocyclohexanecarbonyl)piperidin-4-yl)azetidin-3-ylamino)-N,N-dimethylbenzamide] | < 4.52
31 | COc1cccc(C2(C(=O)N3CC=C(c4nnc(-c5ccc(C(=O)N(C)C)c(Cl)c5)s4)CC3)CCCC2)c1 [Compound 1.64, 2-chloro-4-(5-(1-(1-(3-methoxyphenyl)cyclopentanecarbonyl)-1,2,3,6-tetrahydropyridin-4-yl)-1,3,4-thiadiazol-2-yl)-N,N-dimethylbenzamide] | < 4.52
32 | CN(C)C(=O)c1ccc(-c2nnc(C3=CCN(C(=O)C45CC6CC(CC(C6)C4)C5)CC3)s2)cc1Cl [Compound 1.65, 4-{5-[1-(adamantane-1-carbonyl)-1,2,3,6-tetrahydropyridin-4-yl]-1,3,4-thiadiazol-2-yl}-2-chloro-N,N-dimethylbenzamide] | 5.40
33 | CN(C)C(=O)c1ccc(NC2CN(C3CCN(C(=O)C45CC6CC(CC(C6)C4)C5)CC3)C2)cc1Cl [Compound 1.66, 4-({1-[1-(adamantane-1-carbonyl)piperidin-4-yl]azetidin-3-yl}amino)-2-chloro-N,N-dimethylbenzamide] | < 4.69
